Measured values reported in publication PMC5999115, “Anti-tumor activity of phenoxybenzamine and its inhibition of histone deacetylases” (PLoS ONE, 2018).

Key:
[1] = tested on: MMXF RPMI 8226; experiment: Oncotest CellTiter-Blue cell viability assay, 72 hours; assay type: cell-based, human
Protocol: Further studies with varying drug concentrations on selected human cell lines, in most cases those studied in the NCI60 screen, were conducted by Oncotest GmbH laboratories, Freiburg, Germany; Oncotest is a division of Charles River Laboratories. The dissolution procedure for PBZ and the cell culture […] was 72 hours; anti-tumor activity was determined with the CellTiter-Blue® Cell Viability Assay, Promega, Mannheim, Germany. The 50% Inhibitory (IC50) concentrations were determined. The results are the average of duplicate assays. Paclitaxel was included as a reference compound to confirm the integrity of the assays. See S1 Appendix for further details.
“Cell lines were routinely passaged once or twice weekly and maintained in culture for up to 20 passages. Cells were grown at 37°C in a humidified atmosphere with 5% CO2 in RPMI 1640 medium (25 mM HEPES, with L-glutamine, #FG1385, Biochrom, Berlin, Germany) supplemented with 10% (v/v) fetal calf serum (Sigma, Taufkirchen, Germany) and 0.1 mg/mL gentamicin (Life Technologies, Karlsruhe, Germany).”

[2] = tested on: CFA-affected animals; design: method as in PMID 20846436; conditions: cited from earlier work
[3] = MMX RPMI8226, 1% FCS, study P495C
[4] = MMX RPMI8226, 10% FCS, study P495A
[5] = MMX RPMI8226, 10% FCS, study P495B

CC(COc1ccccc1)N(CCCl)Cc1ccccc1 (centres unmarked) [PBZ, phenoxybenzamine]
Percent cell growth in Oncotest screen with 10% FCS (72 hr incubation) ([1]; 10 μM phenoxybenzamine, RPMI 8226): 98% | IC50 ([1]; Homo sapiens, MMXF RPMI 8226 Myeloma, 1% FCS): 44.4 µM | Test/Control (%) at Drug Concentration [uM] 1,0E+00 [1, 3]: 102% | Test/Control (%) at Drug Concentration [uM] 1,0E+01 [1, 3]: 95% | Test/Control (%) at Drug Concentration [uM] 1,0E+02 [1, 3]: 5% | Test/Control (%) at Drug Concentration [uM] 3,2E+00 [1, 3]: 101% | Test/Control (%) at Drug Concentration [uM] 3,2E+01 [1, 3]: 77% | Test/Control (%) at Drug Concentration [uM] 1,0E+00 [1, 4]: 89% | Test/Control (%) at Drug Concentration [uM] 1,0E+01 [1, 4]: 98% | Test/Control (%) at Drug Concentration [uM] 1,0E+02 [1, 4]: 10% | Test/Control (%) at Drug Concentration [uM] 1,0E-01 [1, 4]: 83% | Test/Control (%) at Drug Concentration [uM] 1,0E-02 [1, 4]: 80% | Test/Control (%) at Drug Concentration [uM] 3,2E+00 [1, 4]: 87% | Test/Control (%) at Drug Concentration [uM] 3,2E+01 [1, 4]: 99% | Test/Control (%) at Drug Concentration [uM] 3,2E-01 [1, 4]: 84% | Test/Control (%) at Drug Concentration [uM] 3,2E-02 [1, 4]: 76% | Test/Control (%) at Drug Concentration [uM] 3,2E-03 [1, 4]: 86% | Test/Control (%) at Drug Concentration [uM] 1,0E+00 [1, 5]: 88% | Test/Control (%) at Drug Concentration [uM] 1,0E+01 [1, 5]: 94% | Test/Control (%) at Drug Concentration [uM] 1,0E+02 [1, 5]: 16% | Test/Control (%) at Drug Concentration [uM] 1,0E-01 [1, 5]: 100% | Test/Control (%) at Drug Concentration [uM] 1,0E-02 [1, 5]: 100% | Test/Control (%) at Drug Concentration [uM] 1,0E-03 [1, 5]: 100% | Test/Control (%) at Drug Concentration [uM] 3,2E+00 [1, 5]: 92% | Test/Control (%) at Drug Concentration [uM] 3,2E+01 [1, 5]: 95% | reversing the heightened pain sensitivity of the CFA-affected animals [2]: equipotent with the nonsteroidal anti-inflammatory drug, naproxen
